Test results taken from paper PMC5007552, “The hVps34‐SGK3 pathway alleviates sustained PI3K/Akt inhibition by stimulating mTORC1 and tumour growth” (The EMBO Journal, 2016).
Several values for one entry are separate records, joined by “and”; a condition that tells them apart may be missing. Equal values may be shown once.

Tested on: ZR-75-1 cells
Experiment: NanoString human kinome mRNA quantification
Assay type: cell-based
Conditions: for Normalised counts: single replicates
Description: Human mRNAs were hybridised to NanoString human kinome and control code sets, then subjected to quantification using NanoString software. […] To permit data compaction, and simple kinome‐wide comparisons, the fold changes are log2 transformed. […] Cell pellets were resuspended at a concentration of ~6,500 cells/μl in RLT buffer (Qiagen). […] For total copy numbers, triplicate normalised count values were averaged, and to calculate fold induction, means were divided by triplicate mean values from matched DMSO controls. P‐values were calculated using unpaired t‐test (GraphPad Prism software) by employing treated and control count data for each kinase mRNA.

NC1(c2ccc(-c3nc4ccn5c(=O)[nH]nc5c4cc3-c3ccccc3)cc2)CCC1 [MK-2206]
CDK18 normalised counts (replicates) (CDK18 mRNA): 93.28 and 102.4 and 103.9
CDK19 average normalised counts (CDK19 mRNA): 336.707
CDK19 normalised counts (replicates) (CDK19 mRNA): 340.52 and 347.39 and 322.21
CDK20 average normalised counts (CDK20 mRNA): 89.7167
CDK20 normalised counts (replicates) (CDK20 mRNA): 106.01 and 80.68 and 82.46
CDKL1 average normalised counts (CDKL1 mRNA): 1
CDKL1 normalised counts (replicates) (CDKL1 mRNA): 1
CDKL2 average normalised counts (CDKL2 mRNA): 5.853
CDKL2 normalised counts (replicates) (CDKL2 mRNA): 6.93 and 5.97 and 4.66
CDKL3 average normalised counts (CDKL3 mRNA): 93.1667
CDKL3 normalised counts (replicates) (CDKL3 mRNA): 98.74 and 82.42 and 98.34
CDKL4 average normalised counts (CDKL4 mRNA): 49.8833
CDKL4 normalised counts (replicates) (CDKL4 mRNA): 49.65 and 57.23 and 42.77
CDKL5 average normalised counts (CDKL5 mRNA): 46.4467
CDKL5 normalised counts (replicates) (CDKL5 mRNA): 46.93 and 52.02 and 40.39
CHEK1 average normalised counts (CHEK1 mRNA): 416.797
CHEK1 normalised counts (replicates) (CHEK1 mRNA): 440.51 and 390.82 and 419.06
CHEK2 average normalised counts (CHEK2 mRNA): 813.71
CHEK2 normalised counts (replicates) (CHEK2 mRNA): 824.09 and 812.16 and 804.88
CHUK average normalised counts (CHUK mRNA): 732.773
CHUK normalised counts (replicates) (CHUK mRNA): 715.01 and 761.78 and 721.53
CIT average normalised counts (CIT mRNA): 394.403
CIT normalised counts (replicates) (CIT mRNA): 393.24 and 389.96 and 400.01
CLK1 average normalised counts (CLK1 mRNA): 994.453
CLK1 normalised counts (replicates) (CLK1 mRNA): 974.07 and 1043.25 and 966.04
CLK2 average normalised counts (CLK2 mRNA): 1169.5
CLK2 normalised counts (replicates) (CLK2 mRNA): 1152.23 and 1182.25 and 1174.03
CLK3 average normalised counts (CLK3 mRNA): 710.143
CLK3 normalised counts (replicates) (CLK3 mRNA): 731.38 and 705.31 and 693.74
CLK4 average normalised counts (CLK4 mRNA): 709.387
CLK4 normalised counts (replicates) (CLK4 mRNA): 719.56 and 687.07 and 721.53
COL4A3BP average normalised counts (COL4A3BP mRNA): 420.653
COL4A3BP normalised counts (replicates) (COL4A3BP mRNA): 415.06 and 433.39 and 413.51
CPNE3 normalised counts (replicates) (CPNE3 mRNA): 2313.35
CSF1R average normalised counts (CSF1R mRNA): 1
CSF1R normalised counts (replicates) (CSF1R mRNA): 1
CSK average normalised counts (CSK mRNA): 629.517
CSK normalised counts (replicates) (CSK mRNA): 633.21 and 603.67 and 651.67
CSNK1A1L average normalised counts (CSNK1A1L mRNA): 2.067
CSNK1A1L normalised counts (replicates) (CSNK1A1L mRNA): 4.2 and 1 (2×)
CSNK1A1 average normalised counts (CSNK1A1 mRNA): 854.287
CSNK1A1 normalised counts (replicates) (CSNK1A1 mRNA): 855.9 and 833.01 and 873.95
CSNK1D average normalised counts (CSNK1D mRNA): 6324.07
CSNK1D normalised counts (replicates) (CSNK1D mRNA): 6300.6 and 6273.94 and 6397.68
CSNK1E average normalised counts (CSNK1E mRNA): 1485.08
CSNK1E normalised counts (replicates) (CSNK1E mRNA): 1520.36 and 1448.08 and 1486.81
Average normalised counts (CSNK1G1 mRNA): 1243.9
Normalised counts (CSNK1G1 mRNA): 1266.76 and 1245.67 and 1219.28
Average normalised counts (CSNK1G2 mRNA): 674.087
Normalised counts (CSNK1G2 mRNA): 671.38 and 671.43 and 679.45
Average normalised counts (CSNK1G3 mRNA): 1032.23
Normalised counts (CSNK1G3 mRNA): 1024.97 and 1049.33 and 1022.4
Average normalised counts (CSNK2A1 mRNA): 568.443
Normalised counts (CSNK2A1 mRNA): 546.86 and 575.87 and 582.6
Average normalised counts (CSNK2A2 mRNA): 157.413
Normalised counts (CSNK2A2 mRNA): 146.91 and 157.13 and 168.2
Average normalised counts (DAPK1 mRNA): 21.41
Normalised counts (DAPK1 mRNA): 22.38 and 18.13 and 23.72
Average normalised counts (DAPK2 mRNA): 44.4967
Normalised counts (DAPK2 mRNA): 37.84 and 52.88 and 42.77
Average normalised counts (DCLK1 mRNA): 64.6967
Normalised counts (DCLK1 mRNA): 61.47 and 58.1 and 74.52
Average normalised counts (DCLK2 mRNA): 1
Normalised counts (DCLK2 mRNA): 1
Average normalised counts (DCLK3 mRNA): 1
Normalised counts (DCLK3 mRNA): 1
Normalised counts (DDR1 mRNA): 2268.77
Average normalised counts (DDR2 mRNA): 24.12
Normalised counts (DDR2 mRNA): 24.2 and 26.82
Average normalised counts (DMPK mRNA): 79.4267
Normalised counts (DMPK mRNA): 89.65 and 78.08 and 70.55
Average normalised counts (DSTYK mRNA): 288.937
Normalised counts (DSTYK mRNA): 315.98 and 310.3
Average normalised counts (DYRK1A mRNA): 1263.91
Normalised counts (DYRK1A mRNA): 1248.58 and 1277.81 and 1265.33
Average normalised counts (DYRK1B mRNA): 113.827
Normalised counts (DYRK1B mRNA): 104.19 and 111.96 and 125.33
Average normalised counts (DYRK2 mRNA): 852.053
Normalised counts (DYRK2 mRNA): 855.9 and 810.43 and 889.83
Average normalised counts (DYRK3 mRNA): 83.6267
Normalised counts (DYRK3 mRNA): 80.56 and 90.24 and 80.08
Average normalised counts (DYRK4 mRNA): 50.6933
Normalised counts (DYRK4 mRNA): 52.38 and 53.75 and 45.95
Average normalised counts (EEF2K mRNA): 449.027
Normalised counts (EEF2K mRNA): 425.05 and 457.72 and 464.31
Average normalised counts (EGFR mRNA): 78.07
